Data reported in PubChem BioAssay (NCI).
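A five-concentration, 48-hour dose response in 96-well plates underlies each endpoint, interpolated linearly between surrounding concentrations. TGI: total growth inhibition.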

Key:
Experiment in all cases: DTP human tumour cell line panel, 48 h
A498 renal = test system: A498 renal
A549 NSCLC = test system: A549 NSCLC
BT-549 breast = test system: BT-549 breast
DU-145 prostate = test system: DU-145 prostate
HL-60(TB) leukemia = test system: HL-60(TB) leukemia
HS 578T breast = test system: HS 578T breast
KM12 colon = test system: KM12 colon
M14 melanoma = test system: M14 melanoma
MDA-MB-435 = test system: MDA-MB-435
MDA-N = test system: MDA-N
NCI/ADR-RES ovarian = test system: NCI/ADR-RES ovarian
OVCAR-8 ovarian = test system: OVCAR-8 ovarian
SK-MEL-28 melanoma = test system: SK-MEL-28 melanoma
SR leukemia = test system: SR leukemia
SW-620 colon = test system: SW-620 colon
T-47D breast = test system: T-47D breast
KM20L2 colon = test system: KM20L2 colon
MCF7 breast = test system: MCF7 breast
DMS 273 small cell lung = test system: DMS 273 small cell lung
M19-MEL melanoma = test system: M19-MEL melanoma

Compound | TGI (A498 renal) [µM] | TGI (A549 NSCLC) [µM] | TGI (BT-549 breast) [µM] | TGI (DU-145 prostate) [µM] | TGI (HL-60(TB) leukemia) [µM] | TGI (HS 578T breast) [µM] | TGI (KM12 colon) [µM] | TGI (M14 melanoma) [µM] | TGI (MDA-MB-435) [µM] | TGI (MDA-N) [µM] | TGI (NCI/ADR-RES ovarian) [µM] | TGI (OVCAR-8 ovarian) [µM] | TGI (SK-MEL-28 melanoma) [µM] | TGI (SR leukemia) [µM] | TGI (SW-620 colon) [µM] | TGI (T-47D breast) [µM] | TGI (KM20L2 colon) [µM] | TGI (MCF7 breast) [µM] | TGI (DMS 273 small cell lung) [µM] | TGI (M19-MEL melanoma) [µM]
O=[N+]([O-])c1ccc(NNN=Nc2ccc(-c3nc4ccccc4s3)cc2)c([N+](=O)[O-])c1 | 20.5 | > 100 | 58.7 | > 100 | 69.9 | > 100 | > 100 | 35.2 | 66.2 | 35.3 | 81.5 | 72.5 | > 100 | 90.1 | > 100 | > 100 | – | – | – | –
O=C(N/N=C/c1cc(Br)cc(Br)c1[O-])c1ccccc1O.O=C(N/N=C/c1cc(Br)cc(Br)c1[O-])c1ccccc1O.[Co+2] | – | 12.6 | – | – | 0.906 | – | 21.1 | 2.73 | – | – | – | 12.5 | 14.5 | 3.29 | 17.2 | – | 11.6 | – | – | –
O=C(CC(Cl)=C(Cl)Cl)c1ccccc1 | > 100 | > 100 | > 100 | > 100 | > 100 | > 100 | > 100 | > 100 | > 100 | – | > 100 | > 100 | > 100 | 43.7 | > 100 | > 100 | – | > 100 | – | –
c1ccc([I+]c2ccccc2)cc1 | > 100 | > 100 | > 100 | > 100 | > 100 | > 100 | > 100 | > 100 | > 100 | > 100 | > 100 | > 100 | > 100 | > 100 | > 100 | > 100 | – | > 100 | – | –
CC1=CC2c3cccc4[nH]cc(c34)CC2N(C)C1 (stereo not given) | > 100 | > 100 | – | – | > 100 | – | > 100 | – | – | – | > 100 | > 100 | > 100 | – | > 100 | – | > 100 | > 100 | > 100 | > 100
BrCC[N+]12CC[N+](CCBr)(CC1)C2 | > 100 | > 100 | > 100 | > 100 | > 100 | > 100 | > 100 | > 100 | > 100 | > 100 | > 100 | > 100 | > 100 | > 100 | > 100 | > 100 | – | > 100 | – | –
O=C(O)C1CCCCN1c1ccccc1[N+](=O)[O-] (stereo not given) | – | > 100 | – | – | > 100 | – | – | > 100 | – | – | – | > 100 | – | > 100 | > 100 | – | > 100 | – | > 100 | > 100
CC(Cl)CC(=O)OCC1CCCN2CCCCC12 (stereo not given) | > 100 | > 100 | > 100 | > 100 | > 100 | > 100 | > 100 | > 100 | > 100 | > 100 | > 100 | > 100 | > 100 | – | > 100 | > 100 | – | > 100 | – | –
Cc1ccc2c(=O)c3ccccc3sc2c1 | – | > 100 | – | – | > 100 | – | > 100 | > 100 | – | – | – | > 100 | > 100 | > 100 | > 100 | – | > 100 | – | > 100 | > 100
CCC1NC(N=Nc2ccc([N+](=O)[O-])cc2)(P(=O)(OC(C)C)OC(C)C)OC1=O (stereo not given) | > 100 | > 100 | – | – | > 100 | – | > 100 | > 100 | – | – | – | > 100 | > 100 | > 100 | > 100 | – | > 100 | – | > 100 | > 100
O=C(Nc1ccc(Cl)cc1)c1cc(S(=O)(=O)Nc2nnc3c(Cl)cc(C(F)(F)F)cn23)c(S)cc1Cl | 86.3 | > 100 | > 100 | > 100 | > 100 | > 100 | > 100 | > 100 | > 100 | – | > 100 | > 100 | > 100 | > 100 | – | > 100 | – | > 100 | – | –
CCn1cnnc1-c1nsc2ccccc12 | – | > 100 | – | – | > 100 | – | > 100 | > 100 | – | – | – | > 100 | > 100 | > 100 | > 100 | – | > 100 | – | > 100 | > 100
C[C@@H]1CC[C@@]2(OC1)O[C@H]1C[C@H]3[C@@H]4CC[C@H]5C[C@@H](OC6OC(CO)C(OC7OC(CO)C(O)C(OC8OCC(O)C(O)C8O)C7OC7OC(CO)C(O)C(O)C7O)C(O)C6O)[C@H](O)C[C@]5(C)[C@H]4CC[C@]3(C)[C@H]1[C@@H]2C (stereo not given in full) | 29.7 | 10.9 | 7.47 | 13.9 | 9.54 | 15.9 | 23.6 | 32 | 31.8 | 28.3 | 12.6 | 9.64 | 31 | > 33.8 | 21 | 28 | – | 1.68 | – | –
CC(=O)Nc1cccc(N=NN(C)C)c1 | > 100 | > 100 | – | – | > 100 | – | > 100 | – | – | – | > 100 | > 100 | > 100 | – | > 100 | – | > 100 | > 100 | > 100 | > 100
CN(Cc1cnc2c(N)nc(N)nc2n1)c1ccc(Cl)cc1 | 98.5 | – | > 100 | > 100 | > 100 | > 100 | > 100 | > 100 | > 100 | > 100 | > 100 | > 100 | – | > 100 | > 100 | > 100 | – | > 100 | – | –
